Results on 22 molecules are retold here after patent US11702404B2, “GLP-1R modulating compounds” (priority 2019, dated 2023).

Data set [1] concerns the target GLP-1R (Homo sapiens, UniProt P43220). Kind of data set: GLP-1R activation: cAMP increase in CHO cells stably expressing GLP-1R. The format is cell-based. The settings on record: cAMP increase, CHO cells stably expressing GLP-1R, 10 point dose response, 30 minutes incubation; read-out: EC50.
The nature of data set [2]: Microsomal stability, human liver microsomes (predicted hepatic clearance). Particulars: predicted from in vitro microsomal stability data.

Structures are written as SMILES.

Chain of GLP-1R (P43220 24-463): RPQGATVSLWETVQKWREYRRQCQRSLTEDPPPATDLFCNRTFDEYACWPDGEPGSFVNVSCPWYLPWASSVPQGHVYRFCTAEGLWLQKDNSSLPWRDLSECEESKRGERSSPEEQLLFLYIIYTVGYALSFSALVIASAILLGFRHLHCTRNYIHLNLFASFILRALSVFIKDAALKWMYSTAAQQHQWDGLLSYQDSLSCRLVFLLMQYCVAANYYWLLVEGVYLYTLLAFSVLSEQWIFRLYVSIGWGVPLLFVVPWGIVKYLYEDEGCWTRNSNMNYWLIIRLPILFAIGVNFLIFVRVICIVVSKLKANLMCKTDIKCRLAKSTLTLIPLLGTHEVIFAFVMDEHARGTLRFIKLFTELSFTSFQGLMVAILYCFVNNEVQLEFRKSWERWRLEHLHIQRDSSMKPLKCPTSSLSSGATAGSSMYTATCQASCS

Regarding `CC1(Cn2c(Cc3ccc(-c4cccc(OCc5ccc(C#N)cc5F)n4)cc3F)nc3ccc(C(=O)NS(=O)(=O)C4CC4)cc32)CC1` [Example 50, 2-(4-(6-((4-Cyano-2-fluorobenzyl)oxy)pyridin-2-yl)-2-fluorobenzyl)-N-(cyclopropylsulfonyl)-1-((1-methylcyclopropyl)methyl)-1H-benzo[d]imidazole-6-carboxamide], the EC50 in data set [1] stood at 19 nM. For the same molecule, the “Predicted Hepatic Clearance (Pred. Cl.)” value in data set [2] is <1.83 mL/min/kg.
Turning to `CC(C)(CF)Cn1c(Cc2ccc(-c3cccc(OCc4ccc(C#N)cc4F)n3)cc2F)nc2ccc(C(=O)NS(=O)(=O)C3CC3)cc21` [Example 51, 2-(4-(6-((4-cyano-2-fluorobenzyl)oxy)pyridin-2-yl)-2-fluorobenzyl)-N-(cyclopropylsulfonyl)-1-(3-fluoro-2,2-dimethylpropyl)-1H-benzo[d]imidazole-6-carboxamide], in data set [1], the EC50 came out at 63 nM. Besides, the “Predicted Hepatic Clearance (Pred. Cl.)” value in data set [2] was <1.83 mL/min/kg.
The matching figures for `CC(C)(Cn1c(Cc2ccc(-c3cccc(OCc4ccc(C#N)cc4F)n3)cc2F)nc2ccc(C(=O)NS(=O)(=O)C3CC3)cc21)C(F)F` [Example 52, 2-(4-(6-((4-cyano-2-fluorobenzyl)oxy)pyridin-2-yl)-2-fluorobenzyl)-N-(cyclopropylsulfonyl)-1-(3,3-difluoro-2,2-dimethylpropyl)-1H-benzo[d]imidazole-6-carboxamide]: 56 nM and <1.83 mL/min/kg.
The matching figures for `COCCn1c(Cc2ccc(-c3cccc(OCc4ccc(C#N)cc4F)n3)c(C)c2)nc2ccc(C(=O)NS(=O)(=O)C3CC3)cc21` [Example 53, 2-(4-(6-((4-cyano-2-fluorobenzyl)oxy)pyridin-2-yl)-3-methylbenzyl)-N-(cyclopropylsulfonyl)-1-(2-methoxyethyl)-1H-benzo[d]imidazole-6-carboxamide]: 1010 nM and 9 mL/min/kg.
For `COCCn1c(Cc2ccc(-c3cccc(OCc4ccc(C#N)cc4F)n3)cn2)nc2ccc(C(=O)NS(=O)(=O)C3CC3)cc21` [Example 54, 2-((6-((4-cyano-2-fluorobenzyl)oxy)-[2,3′-bipyridin]-6′-yl)methyl)-N-(cyclopropylsulfonyl)-1-(2-methoxyethyl)-1H-benzo[d]imidazole-6-carboxamide], the EC50 in data set [1] turned out to be 806 nM. In addition, the “Predicted Hepatic Clearance (Pred. Cl.)” value in data set [2] is 3.83 mL/min/kg.
Turning to `N#CCC1(Cn2c(Cc3ccc(-c4cccc(OCc5ccc(C#N)cc5F)n4)cc3F)nc3ccc(C(=O)NS(=O)(=O)C4CC4)cc32)CC1` [Example 55, 2-(4-(6-((4-cyano-2-fluorobenzyl)oxy)pyridin-2-yl)-2-fluorobenzyl)-1-((1-(cyanomethyl)cyclopropyl)methyl)-N-(cyclopropylsulfonyl)-1H-benzo[d]imidazole-6-carboxamide], the EC50 in data set [1] came to 3.4 nM. The “Predicted Hepatic Clearance (Pred. Cl.)” value in data set [2] was 4.33 mL/min/kg.
The matching figures for `N#Cc1ccc(COc2cccc(-c3ccc(Cc4nc5ccc(C(=O)NS(=O)(=O)C6CC6)cc5n4CC4(CF)CC4)c(F)c3)n2)c(F)c1` [Example 57, 2-(4-(6-((4-cyano-2-fluorobenzyl)oxy)pyridin-2-yl)-2-fluorobenzyl)-N-(cyclopropylsulfonyl)-1-((1-(fluoromethyl)cyclopropyl)methyl)-1H-benzo[d]imidazole-6-carboxamide]: 6.7 nM and <1.83 mL/min/kg.
For the molecule `COCCn1c(Cc2ccc(-c3cccc(OCc4ccc(C#N)cc4F)n3)cc2C)nc2ccc(C(=O)O)cc21` [Example 59, 2-(4-(6-((4-cyano-2-fluorobenzyl)oxy)pyridin-2-yl)-2-methylbenzyl)-1-(2-methoxyethyl)-1H-benzo[d]imidazole-6-carboxylic acid], in data set [1], the 50% effective concentration (EC50) is 5.6 nM. Further, in data set [2], the “Predicted Hepatic Clearance (Pred. Cl.)” value is <1.83 mL/min/kg.
In the case of `COCCn1c(Cc2ncc(-c3cccc(OCc4ccc(C#N)cc4F)n3)cc2F)nc2ccc(C(=O)O)cc21` [Example 60, 2-{[5-[6-[(4-cyano-2-fluoro-phenyl)methoxy]-2-pyridyl]-3-fluoro-2-pyridyl]methyl}-3-(2-methoxyethyl)benzimidazole-5-carboxylic acid], in data set [1], the half-maximal effective concentration (EC50) came to 30 nM. The “Predicted Hepatic Clearance (Pred. Cl.)” value in data set [2] was <1.83 mL/min/kg.
The matching figures for `COCCn1c(Cn2ccc(-c3cccc(OCc4ccc(C#N)cc4F)n3)cc2=O)nc2ccc(C(=O)O)cc21` [Example 61, 2-((6-((4-cyano-2-fluorobenzyl)oxy)-2′-oxo-[2,4′-bipyridin]-1′(2′H)-yl)methyl)-1-(2-methoxyethyl)-1H-benzo[d]imidazole-6-carboxylic acid]: 18 nM and <1.83 mL/min/kg.
In the same order, the values of `COCCn1c(Cc2ccc(-c3nc(OCc4ccc(C#N)cc4F)ns3)cc2F)nc2ccc(C(=O)O)cc21` [Example 62, 2-(4-(3-((4-cyano-2-fluorobenzyl)oxy)-1,2,4-thiadiazol-5-yl)-2-fluorobenzyl)-1-(2-methoxyethyl)-1H-benzo[d]imidazole-6-carboxylic acid] are 1430 nM and 6.7 mL/min/kg.
In the same order, the values of `COCCn1c(Cc2ccc(-c3nsc(OCc4ccc(C#N)cc4F)n3)cc2F)nc2ccc(C(=O)O)cc21` [Example 63, 2-{[4-[5-[(4-cyano-2-fluoro-phenyl)methoxy]-1,2,4-thiadiazol-3-yl]-2-fluoro-phenyl]methyl}-3-(2-methoxyethyl)benzimidazole-5-carboxylic acid] are 164 nM and <1.83 mL/min/kg.
For the molecule `COCCn1c(Cc2ccc(-c3cccc(OCc4ccc(C#N)cc4F)n3)cc2N)nc2ccc(C(=O)O)cc21` [Example 64, 2-(2-amino-4-(6-((4-cyano-2-fluorobenzyl)oxy)pyridin-2-yl)benzyl)-1-(2-methoxyethyl)-1H-benzo[d]imidazole-6-carboxylic acid], the EC50 in data set [1] is 67 nM. Also, the “Predicted Hepatic Clearance (Pred. Cl.)” value in data set [2] was 3.5 mL/min/kg.
As to `COCCn1c(Cc2ccc(-c3cccc(OCc4ccc(C#N)cc4F)n3)cc2NC(C)=O)nc2ccc(C(=O)O)cc21` [Example 65, 2-(2-Acetamido-4-(6-((4-cyano-2-fluorobenzyl)oxy)pyridin-2-yl)benzyl)-1-(2-methoxyethyl)-1H-benzo[d]imidazole-6-carboxylic acid], the EC50 in data set [1] worked out at 1230 nM. Also, the “Predicted Hepatic Clearance (Pred. Cl.)” value in data set [2] is 7.17 mL/min/kg.
In the same order, the values of `COCCn1c(Cc2ccc(-c3cccc(OCc4ccc(C#N)cc4F)n3)cc2NS(C)(=O)=O)nc2ccc(C(=O)O)cc21` [Example 66, 2-(4-(6-((4-Cyano-2-fluorobenzyl)oxy)pyridin-2-yl)-2-(methylsulfonamido)benzyl)-1-(2-methoxyethyl)-1H-benzo[d]imidazole-6-carboxylic acid] are 1030 nM and 12.3 mL/min/kg.
The matching figures for `COCCn1c(Cc2ccc(-c3cccc(OCc4ccc(C#N)cc4F)n3)cc2F)nc2ncc(C(=O)O)cc21` [Example 71, 2-(4-(6-((4-cyano-2-fluorobenzyl)oxy)pyridin-2-yl)-2-fluorobenzyl)-1-(2-methoxyethyl)-1H-imidazo[4,5-b]pyridine-6-carboxylic]: 1.34 nM and <1.83 mL/min/kg.
The matching figures for `COCCn1c(Cc2c(F)cc(-c3csnc3OCc3ccc(Cl)cc3F)cc2F)nc2ccc(C(=O)O)cc21` [Example 72, 2-(4-(3-((4-chloro-2-fluorobenzyl)oxy)isothiazol-4-yl)-2,6-difluorobenzyl)-1-(2-methoxyethyl)-1H-benzo[d]imidazole-6-carboxylic acid]: 23.8 nM and 12.3 mL/min/kg.
On to `COCCn1c(Cc2ccc(-c3nc(OCc4ccc(C#N)cc4F)c(F)cc3F)cc2F)nc2ccc(C(=O)O)cc21` [Example 73, 2-(4-(6-((4-cyano-2-fluorobenzyl)oxy)-3,5-difluoropyridin-2-yl)-2-fluorobenzyl)-1-(2-methoxyethyl)-1H-benzo[d]imidazole-6-carboxylic acid], for which, in data set [1], the 50% effective concentration (EC50) came out at 6.13 nM. Moreover, in data set [2], the “Predicted Hepatic Clearance (Pred. Cl.)” value was 4.5 mL/min/kg.
For the molecule `COc1cc(Cl)ccc1COc1cccc(-c2ccc(Cc3nc4ccc(C(=O)O)cc4n3CC3(CC#N)CC3)cc2F)n1` [Example 74, 2-(4-(6-((4-chloro-2-methoxybenzyl)oxy)pyridin-2-yl)-3-fluorobenzyl)-1-((1-(cyanomethyl)cyclopropyl)methyl)-1H-benzo[d]imidazole-6-carboxylic acid], the EC50 in data set [1] was 0.46 nM. Further, the “Predicted Hepatic Clearance (Pred. Cl.)” value in data set [2] is 13.2 mL/min/kg.
In the same order, the values of `COc1cc(Cl)ccc1COc1nccc(-c2ccc(Cc3nc4ccc(C(=O)O)cc4n3CC3(CF)CC3)cc2F)n1` [Example 75, 2-(4-(2-((4-chloro-2-methoxybenzyl)oxy)pyrimidin-4-yl)-3-fluorobenzyl)-1-((1-(fluoromethyl)cyclopropyl)methyl)-1H-benzo[d]imidazole-6-carboxylic acid] are 0.6 nM and 13.8 mL/min/kg.
The matching figures for `COCCn1c(Cc2c(F)cc(-c3csnc3OCc3ccc(C#N)cc3F)cc2F)nc2ccc(C(=O)O)cc21` [Example 76, 2-(4-(3-((4-cyano-2-fluorobenzyl)oxy)isothiazol-4-yl)-2,6-difluorobenzyl)-1-(2-methoxyethyl)-1H-benzo[d]imidazole-6-carboxylic acid]: 22.3 nM and 13.4 mL/min/kg.
In the same order, the values of `COCCn1c(Cc2ccc(-c3cc(F)cc(OCc4ccc(C#N)cc4OC)n3)cc2F)nc2ccc(C(=O)O)cc21` [Example 77, 2-(4-(6-((4-cyano-2-methoxybenzyl)oxy)-4-fluoropyridin-2-yl)-2-fluorobenzyl)-1-(2-methoxyethyl)-1H-benzo[d]imidazole-6-carboxylic] are 0.19 nM and 9.17 mL/min/kg.
